# Laboratory results: article PMC6438731, “Extrasynaptic δ‐GABAA receptors are high‐affinity muscimol receptors” (Journal of Neurochemistry, 2019)
# Several values for one entry are separate records, joined by “and”; a condition that tells them apart may be missing. Equal entries are not always repeated.
# Assays:
# [1] = biological target: native δ‐GABAARs in the forebrain (WT‐δKO, predominantly α4βδ) (Mus musculus, UniProt P63137+Q9D6F4); assay: [^3H]muscimol binding kinetics, forebrain WT‐δKO (subtracted); details: 22°C
# native δ‐GABAARs in the forebrain (WT‐δKO, predominantly α4βδ), sequence (Q9D6F4 36-552): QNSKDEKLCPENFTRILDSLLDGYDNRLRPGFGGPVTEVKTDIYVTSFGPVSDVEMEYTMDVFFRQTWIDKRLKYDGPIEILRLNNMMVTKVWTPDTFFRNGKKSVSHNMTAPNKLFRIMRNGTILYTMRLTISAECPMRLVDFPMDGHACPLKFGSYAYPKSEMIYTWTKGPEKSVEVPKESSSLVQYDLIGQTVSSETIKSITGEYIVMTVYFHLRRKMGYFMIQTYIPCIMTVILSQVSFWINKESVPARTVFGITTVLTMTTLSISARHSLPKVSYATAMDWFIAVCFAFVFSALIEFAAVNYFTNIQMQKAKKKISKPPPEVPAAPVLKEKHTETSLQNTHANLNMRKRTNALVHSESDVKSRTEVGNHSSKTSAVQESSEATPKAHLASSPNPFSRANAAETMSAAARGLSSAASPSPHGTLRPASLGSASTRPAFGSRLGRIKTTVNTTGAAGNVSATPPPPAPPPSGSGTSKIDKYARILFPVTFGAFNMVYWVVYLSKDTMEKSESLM
# native δ‐GABAARs in the forebrain (WT‐δKO, predominantly α4βδ), sequence (P63137 26-512): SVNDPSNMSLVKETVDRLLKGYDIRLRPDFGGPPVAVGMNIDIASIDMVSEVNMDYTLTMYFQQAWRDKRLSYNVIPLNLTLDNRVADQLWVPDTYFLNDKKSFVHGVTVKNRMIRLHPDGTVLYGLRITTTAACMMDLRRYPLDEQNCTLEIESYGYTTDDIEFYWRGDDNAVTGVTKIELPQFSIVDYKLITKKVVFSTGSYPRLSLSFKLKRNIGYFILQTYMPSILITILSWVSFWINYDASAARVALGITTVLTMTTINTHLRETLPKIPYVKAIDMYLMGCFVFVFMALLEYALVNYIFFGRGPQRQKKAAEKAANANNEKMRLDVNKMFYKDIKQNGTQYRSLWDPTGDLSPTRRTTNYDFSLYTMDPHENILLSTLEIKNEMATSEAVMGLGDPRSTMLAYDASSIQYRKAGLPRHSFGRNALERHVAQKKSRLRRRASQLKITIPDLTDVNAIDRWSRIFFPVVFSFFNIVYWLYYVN
# native δ‐GABAARs in the forebrain (WT‐δKO, predominantly α4βδ), sequence (P22933 25-449 partner): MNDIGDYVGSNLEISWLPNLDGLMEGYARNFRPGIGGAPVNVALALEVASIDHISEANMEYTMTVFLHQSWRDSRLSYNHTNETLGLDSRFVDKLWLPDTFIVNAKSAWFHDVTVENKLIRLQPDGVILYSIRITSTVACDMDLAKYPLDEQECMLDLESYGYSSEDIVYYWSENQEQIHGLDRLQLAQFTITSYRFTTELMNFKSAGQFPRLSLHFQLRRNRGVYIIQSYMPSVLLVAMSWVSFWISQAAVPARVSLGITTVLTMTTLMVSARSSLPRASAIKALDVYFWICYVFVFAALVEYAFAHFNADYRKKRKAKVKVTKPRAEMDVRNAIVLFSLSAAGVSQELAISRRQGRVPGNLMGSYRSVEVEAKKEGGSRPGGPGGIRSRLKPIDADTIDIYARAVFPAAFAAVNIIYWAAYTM
# Experimental: (§1) WT and δKO forebrain and cerebellar membranes were prepared using a modification of the method of Squires and Saederup (2000) essentially as described by Uusi‐Oukari et al. (2014). […] forebrain along with midbrain region was homogenized into 10 mM Tris‐HCl, pH 8.0 buffer containing 2 mM EDTA, using an Ultra‐Turrax T25 (Janke & Kunkel IKA labortechnik) for 20 s at 9500 rpm. The homogenates were centrifuged at 20 000 g for 10 min at +4°C and the resulting pellets were washed three times by resuspension and re‐centrifugation with 10 mM Tris‐HCl, pH 8.5 buffer containing 0.2 M NaCl, and 5 mM EDTA. The resulting pellets were then suspended in ice‐cold H2O and centrifuged. The pellets were again washed three times with Tris, pH 8.5/NaCl/EDTA as described above. The resulting pellets were finally suspended in assay buffer consisting of 50 mM Tris‐base, pH adjusted to 7.4 with citric acid, and frozen at −70°C. Before a binding experiment, the suspension was thawed, centrifuged, and suspended in assay buffer.
# (§2) The binding of [^3H]muscimol (5 nM) was measured in assay buffer at 22°C in a total volume of 300 μL. Triplicate technical replicates of mouse forebrain (190–215 μg protein), cerebellar (180–210 μg protein) or HEK cell (92–132 μg protein) membranes for each time point were incubated with shaking for various times (15 s–15 min) to measure association of the binding. […] Air‐dried filters were immersed in 3 mL of Optiphase HiSafe 3 scintillation fluid (Wallac, Turku, Finland) and radioactivity determined in a Wallac model 1410 liquid scintillation counter (Wallac, Turku, Finland). […]
# (§3) The tubes were mixed and incubations at 22°C were terminated at various time points (30 s – 30 min) as described above. Dissociation of [^3H]muscimol from recombinant receptors in HEK cell membranes was also measured at 0–4°C (on ice) to evaluate how fast [^3H]muscimol dissociates from receptors while washing the filter with ice‐cold assay buffer during filtration. […]
# [2] = biological target: native δ‐GABAARs in the cerebellum (WT‐δKO, α6βδ) (Mus musculus, UniProt P16305+P63137); assay: [^3H]muscimol binding kinetics, cerebellum WT‐δKO (subtracted); details: 22°C
# native δ‐GABAARs in the cerebellum (WT‐δKO, α6βδ), sequence (P16305 20-453): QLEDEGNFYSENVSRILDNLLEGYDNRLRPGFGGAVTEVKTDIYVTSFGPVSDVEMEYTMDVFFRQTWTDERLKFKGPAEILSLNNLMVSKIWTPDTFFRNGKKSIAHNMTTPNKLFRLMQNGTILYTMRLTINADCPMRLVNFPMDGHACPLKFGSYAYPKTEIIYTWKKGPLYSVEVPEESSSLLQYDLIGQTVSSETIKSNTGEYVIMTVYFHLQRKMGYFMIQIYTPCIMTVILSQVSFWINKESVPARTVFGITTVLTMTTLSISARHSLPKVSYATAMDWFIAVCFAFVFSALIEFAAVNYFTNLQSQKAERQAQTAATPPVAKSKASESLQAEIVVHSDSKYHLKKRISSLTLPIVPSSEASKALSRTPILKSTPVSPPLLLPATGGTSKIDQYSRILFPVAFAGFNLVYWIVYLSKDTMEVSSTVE
# native δ‐GABAARs in the cerebellum (WT‐δKO, α6βδ), sequence (P63137 26-512): as the sequence (P63137 26-512) above
# native δ‐GABAARs in the cerebellum (WT‐δKO, α6βδ), sequence (P22933 25-449 partner): as the sequence (P22933 25-449 partner) above
# Experimental: as §1, §2, §3
# [3] = biological target: cerebellar membranes of δKO mice; assay: Saturation analysis of [^3H]muscimol binding, δKO cerebellar membranes; set-up: species or system mouse; details: 0°C
# Experimental: as §1
# (§4) Saturation analysis of [^3H]muscimol to WT and δKO mouse forebrain and cerebellar membranes was performed essentially as described by Uusi‐Oukari and Korpi (1989). […] The incubations were terminated as described above.
# [4] = biological target: cerebellar membranes of WT mice; assay: [^3H]muscimol binding kinetics, WT cerebellar membranes; set-up: species or system mouse
# Experimental: as §1, §2
# (§5) The tubes were mixed and incubations at 22°C were terminated at various time points (30 s – 30 min) as described above. Dissociation of [^3H]muscimol from recombinant receptors in HEK cell membranes was also measured at 0–4°C (on ice) to evaluate how fast [^3H]muscimol dissociates from receptors while washing the filter with ice‐cold assay buffer during filtration.
# [5] = biological target: cerebellar membranes of WT mice; assay: Saturation analysis of [^3H]muscimol binding, WT cerebellar membranes; set-up: species or system mouse; details: 0°C
# Experimental: as §1, §4
# [6] = biological target: cerebellar membranes of δKO mice (non‐δ‐GABAARs); assay: [^3H]muscimol binding kinetics, δKO cerebellar membranes; set-up: species or system mouse
# Experimental: as §1, §2, §5
# [7] = biological target: forebrain membranes of WT mice; assay: Saturation analysis of [^3H]muscimol binding, WT forebrain membranes; set-up: species or system mouse; details: 0°C
# Experimental: as §1, §4
# [8] = biological target: forebrain membranes of δKO mice; assay: Saturation analysis of [^3H]muscimol binding, δKO forebrain membranes; set-up: species or system mouse; details: 0°C
# Experimental: as §1, §4
# [9] = biological target: T1, α6β3δ recombinant GABAA receptor (Rattus norvegicus, UniProt P30191+P63079); assay: [^3H]muscimol binding kinetics, recombinant α6β3δ in HEK293 membranes
# T1 construct: expressed in transfected cells; host or cells: HEK293 (ATCC CRL-1573), pRK5 plasmids, membranes
# T1 sequence (P30191 20-453): as the sequence (P16305 20-453) above, with Q121H, T163S, T325K, A333T, S334T, Q338E, A371V, K379P, S384T, T392I counted along it
# T1 sequence (P63079 26-473): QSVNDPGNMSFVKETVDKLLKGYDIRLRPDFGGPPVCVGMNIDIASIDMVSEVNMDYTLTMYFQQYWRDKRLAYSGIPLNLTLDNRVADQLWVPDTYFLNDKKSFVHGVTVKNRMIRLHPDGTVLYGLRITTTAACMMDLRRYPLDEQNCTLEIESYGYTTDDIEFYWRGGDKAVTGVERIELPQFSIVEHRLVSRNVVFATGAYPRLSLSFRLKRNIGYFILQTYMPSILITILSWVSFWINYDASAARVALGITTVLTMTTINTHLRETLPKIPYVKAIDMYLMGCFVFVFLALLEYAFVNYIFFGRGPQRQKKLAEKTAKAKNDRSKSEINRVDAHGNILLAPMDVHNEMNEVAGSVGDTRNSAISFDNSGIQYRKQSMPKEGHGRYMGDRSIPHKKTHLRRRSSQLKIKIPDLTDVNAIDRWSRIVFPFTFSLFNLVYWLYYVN
# T1 sequence (P18506 25-449 partner): as the sequence (P22933 25-449 partner) above, with A38P, L149M counted along it
# Description: Human embryonic kidney (HEK) 293 cells (ATCC Cat# CRL‐1573; RRID: CVCL_0045; a commonly misidentified cell line by ICLAC; last authenticated by STR DNA profiling in December 2018) were transfected with rat cDNAs (α1, L08490; α6, L08495; β2, X15467; β3, X15468; γ2S, L08497; δ, L08496) in pRK5 plasmids under the control of the cytomegalovirus promoter (Uusi‐Oukari et al. 2000), using the calcium phosphate precipitation method essentially as described (Lüddens and Korpi 1997). The plasmids were used in 1 : 1 and 1 : 1 : 1 ratios for transfections containing 2 [(α1 or α6) + (β2 or β3)] or 3 [(α1 or α6) + (β2 or β3) + (γ2S or δ)] different subunits, respectively (5 μg of each plasmid DNA for a 10 cm plate). Mock transfection was done using 5 μg pRK5 plasmid backbone. The cells were harvested 48 h after transfection. Culture medium was removed and the cells were detached from the plates by pipetting in ice‐cold assay buffer containing 2 mM EDTA. The cells were homogenized (Ultra Turrax, 20 s at 9500 rpm), the homogenates centrifuged at 20 000 g for 10 min at +4°C, and washed once with the same buffer. The homogenates were finally suspended in assay buffer (1 mL/plate) and either used directly to binding assays or stored frozen at −70°C.
# The binding of [^3H]muscimol (5 nM) was measured in assay buffer at 22°C in a total volume of 300 μL. […] Air‐dried filters were immersed in 3 mL of Optiphase HiSafe 3 scintillation fluid (Wallac, Turku, Finland) and radioactivity determined in a Wallac model 1410 liquid scintillation counter (Wallac, Turku, Finland). […]
# as §5
# [10] = set-up: method as in Maggi and Enna 1979; details: rat brain, ref Maggi and Enna 1979; cited from earlier work
# [11] = biological target: forebrain membranes of WT mice; assay: [^3H]muscimol binding kinetics, WT forebrain membranes; set-up: species or system mouse
# Experimental: as §1, §2, §5
# [12] = forebrain WT‐δKO (native δ‐GABAARs, by subtraction)
# [13] = cerebellum WT‐δKO (native δ‐GABAARs, by subtraction)
# [14] = room temperature (22°C), 5 nM [^3H]muscimol
smiles,measurement,setting,value
NCc1cc(=O)[nH]o1 [[^3H]muscimol] [[Methylene‐^3H]muscimol],k off,[1]; [12],0.00383 ± 0.00033 s⁻¹
same,k on,[1]; [12],1.4 ± 0.2 × 10^8 M^−1 × min^−1
same,Kd,"[1]; forebrain WT‐δKO (native δ‐GABAARs, α4βδ), K D = koff/kon",~1.6 nM and 1.6 nM
same,k off,[2]; [13],0.002 ± 0.0005 s⁻¹
same,k on,[2]; [13],1.2 ± 0.2 × 10^8 M^−1 × min^−1
same,Kd,"[2]; cerebellum WT‐δKO (native δ‐GABAARs, α6βδ), K D = koff/kon",~1 nM and 1 nM
same,Apparent pKD,[3],8.15 ± 0.02
same,Kd,"[4]; 22°C, K D = koff/kon",1.7 nM
same,k off,[4]; room temperature (22°C),0.00783 ± 0.00233 s⁻¹
same,k on,[4]; [14],2.8 ± 0.2 × 10^8 M^−1 × min^−1
same,Apparent pKD,[5],8.34 ± 0.01
same,Kd,"[6]; 22°C, K D = koff/kon",1.4 nM
same,k off,[6]; room temperature (22°C),1.11 ± 0.09 ^* min^−1
same,k on,[6]; [14],7.7 ± 0.2 × 10^8 ^** M^−1 × min^−1
same,Apparent pKD,[7],8.02 ± 0.06
same,Apparent pKD,[8],7.68 ± 0.05
same,Kd,"[9]; 22°C, K D = koff/kon",0.72 nM
same,k off,[9]; room temperature (22°C),0.13 ± 0.01 ^### min^−1
same,k on,[9]; [14],"1.8 ± 0.1 × 10^8, ^### M^−1 × min^−1"
same,fraction of peripherally injected [^3H]muscimol that entered the brain,[10],around 0.02%
same,Kd,"[11]; 22°C, K D = koff/kon",1.6 nM
same,k off,[11]; room temperature (22°C),0.00883 ± 0.00033 s⁻¹
same,k on,[11]; [14],3.3 ± 0.2 × 10^8 M^−1 × min^−1
